Measurements reported in US11932624B2, “MDM2 degraders and uses thereof” (Kymera Therapeutics, Inc., priority 2020, dated 2024).
pIC50: −log10 of the molar value.

Tested on: RS411 cells
Assay: Cell Viability CTG Assay (CellTiter Glo) in RS411 cells
Type: cell-based
Settings: Homo sapiens, RS4-11, 24 h, duration 1 day
Description: Example 23. Cell Viability CTG Assay
Day 0: Compounds or DMSO 60 nL were stamped to the cell plate as the platemap. RS411 cells were centrifuged at 800 rpm for 5 min, suspended with culture medium, and counted with Countess (Invitrogen). The cell density was adjusted to the recommend information. 30 μL of cell solution (1000 cells/well) was added to the assay plate as the platemap and 30 uL of media was added to column 2 and column 23 as the platemap. The plate was spun down briefly. The final concentration of the compounds started at 10 μM (3 fold dilution and 11 doses) and final DMSO concentration was 0.2%. The plate was spun down briefly and incubated at 37° C., 5% CO2 for 1-4 days.
30 μL CellTiter Glo reagent was added to each well and the plate was centrifuged at 1000 rpm for 30 sec. The plate was shaken for 1 min and centrifuged at 1000 rpm for 30 sec. The plate was incubated at RT for 10 min to stabilize the luminescent signal and the luminescence was read by EnVision.
The letter codes for IC50 indicate the concentration of compound required to affect 50% of cells: A (<0.05 μM), B (0.05-0.1 μM), C (0.1-0.5 μM), D (0.5-1.0 μM), and E (>1.0 μM).

| SMILES | pIC50 |
| --- | --- |
| Cn1c(=O)n(C2CCC(=O)NC2=O)c2cccc(C#CCNC(=O)c3ccc(NC(=O)[C@@H]4NC5(CCCCC5)[C@@]5(C(=O)Nc6cc(Cl)ccc65)[C@H]4c4cccc(Cl)c4F)cc3)c21 (stereo partly drawn) [I-46] | > 7.30 |
| Cn1c(=O)n(C2CCC(=O)NC2=O)c2cccc(C#C[C@@H]3CN(C(=O)c4ccc(NC(=O)[C@@H]5NC6(CCCCC6)[C@@]6(C(=O)Nc7cc(Cl)ccc76)[C@H]5c5cccc(Cl)c5F)cc4)CCO3)c21 (stereo partly drawn) [I-47] | 7.00 to 7.30 |
| Cn1c(=O)n(C2CCC(=O)NC2=O)c2ccc(C#CCCNC(=O)c3ccc(NC(=O)[C@@H]4NC5(CCCCC5)[C@@]5(C(=O)Nc6cc(Cl)ccc65)[C@H]4c4cccc(Cl)c4F)cc3)cc21 (stereo partly drawn) [I-48] | > 7.30 |
| Cn1c(=O)n(C2CCC(=O)NC2=O)c2cccc(CN3CCC(OC4CCN(C(=O)c5ccc(NC(=O)[C@@H]6NC7(CCCCC7)[C@@]7(C(=O)Nc8cc(Cl)ccc87)[C@H]6c6cccc(Cl)c6F)cc5)CC4)CC3)c21 (stereo partly drawn) [I-49] | > 7.30 |
| Cn1c(=O)n(C2CCC(=O)NC2=O)c2cccc(CCCC(=O)N3CCN(C(=O)c4ccc(NC(=O)[C@@H]5NC6(CCCCC6)[C@@]6(C(=O)Nc7cc(Cl)ccc76)[C@H]5c5cccc(Cl)c5F)cc4)CC3)c21 (stereo partly drawn) [I-50] | > 7.30 |
| Cn1c(=O)n(C2CCC(=O)NC2=O)c2cccc(C#CCCCNC(=O)c3ccc(NC(=O)[C@@H]4NC5(CCCCC5)[C@@]5(C(=O)Nc6cc(Cl)ccc65)[C@H]4c4cccc(Cl)c4F)cc3)c21 (stereo partly drawn) [I-51] | > 7.30 |
| CN(CCCOCCCc1cccc2c1n(C)c(=O)n2C1CCC(=O)NC1=O)C(=O)c1ccc(NC(=O)[C@@H]2NC3(CCCCC3)[C@@]3(C(=O)Nc4cc(Cl)ccc43)[C@H]2c2cccc(Cl)c2F)cc1 (stereo partly drawn) [I-52] | > 7.30 |
| Cn1c(=O)n(C2CCC(=O)NC2=O)c2cccc(CCC3CC4(CCN(C(=O)c5ccc(NC(=O)[C@@H]6NC7(CCCCC7)[C@@]7(C(=O)Nc8cc(Cl)ccc87)[C@H]6c6cccc(Cl)c6F)cc5)CC4)C3)c21 (stereo partly drawn) [I-53] | 7.00 to 7.30 |
| O=C1CCC(n2c(=O)oc3c(CCCOC4CCN(C(=O)c5ccc(NC(=O)[C@@H]6NC7(CCCCC7)[C@@]7(C(=O)Nc8cc(Cl)ccc87)[C@H]6c6cccc(Cl)c6F)cc5)CC4)cccc32)C(=O)N1 (stereo partly drawn) [I-54] | 7.00 to 7.30 |
| Cn1c(=O)n(C2CCC(=O)NC2=O)c2cccc(N3CCC4(CCN(C(=O)c5ccc(NC(=O)[C@@H]6NC7(CCCCC7)[C@@]7(C(=O)Nc8cc(Cl)ccc87)[C@H]6c6cccc(Cl)c6F)cc5)CC4)CC3)c21 (stereo partly drawn) [I-55] | 7.00 to 7.30 |
| CN(C[C@@H]1CN(CC#Cc2ccc3c(c2)n(C)c(=O)n3C2CCC(=O)NC2=O)CCO1)C(=O)c1ccc(NC(=O)[C@@H]2NC3(CCCCC3)[C@@]3(C(=O)Nc4cc(Cl)ccc43)[C@H]2c2cccc(Cl)c2F)cc1 (stereo partly drawn) [I-56] | > 7.30 |
| O=C1CCC(n2c(=O)oc3cc(CCCOCCOCCNC(=O)c4ccc(NC(=O)[C@@H]5NC6(CCCCC6)[C@@]6(C(=O)Nc7cc(Cl)ccc76)[C@H]5c5cccc(Cl)c5F)cc4)ccc32)C(=O)N1 (stereo partly drawn) [I-57] | > 7.30 |
| Cn1c(=O)n(C2CCC(=O)NC2=O)c2cccc(C3CCN(C(=O)c4ccc(NC(=O)[C@@H]5NC6(CCCCC6)[C@@]6(C(=O)Nc7cc(Cl)ccc76)[C@H]5c5cccc(Cl)c5F)cc4)CC3)c21 (stereo partly drawn) [I-58] | > 7.30 |
| Cn1c(=O)n(C2CCC(=O)NC2=O)c2cccc(NCC3CC4(C3)CN(C(=O)c3ccc(NC(=O)[C@@H]5NC6(CCCCC6)[C@@]6(C(=O)Nc7cc(Cl)ccc76)[C@H]5c5cccc(Cl)c5F)cc3)C4)c21 (stereo partly drawn) [I-59] | > 7.30 |
| Cn1c(=O)n(C2CCC(=O)NC2=O)c2cccc(C#CCN3CCC4(CC3)CN(C(=O)c3ccc(NC(=O)[C@@H]5NC6(CCCCC6)[C@@]6(C(=O)Nc7cc(Cl)ccc76)[C@H]5c5cccc(Cl)c5F)cc3)C4)c21 (stereo partly drawn) [I-60] | > 7.30 |
| Cn1c(=O)n(C2CCC(=O)NC2=O)c2cccc(CCN3CC4(CCN(C(=O)c5ccc(NC(=O)[C@@H]6NC7(CCCCC7)[C@@]7(C(=O)Nc8cc(Cl)ccc87)[C@H]6c6cccc(Cl)c6F)cc5)CC4)C3)c21 (stereo partly drawn) [I-61] | > 7.30 |
| CN(CCC#Cc1cccc2c1n(C)c(=O)n2C1CCC(=O)NC1=O)C(=O)c1ccc(NC(=O)[C@@H]2NC3(CCCCC3)[C@@]3(C(=O)Nc4cc(Cl)ccc43)[C@H]2c2cccc(Cl)c2F)cc1 (stereo partly drawn) [I-62] | 7.00 to 7.30 |
| CN(C(=O)c1ccc(NC(=O)[C@@H]2NC3(CCCCC3)[C@@]3(C(=O)Nc4cc(Cl)ccc43)[C@H]2c2cccc(Cl)c2F)cc1)C1CCN(Cc2cccc3c2n(C)c(=O)n3C2CCC(=O)NC2=O)CC1 (stereo partly drawn) [I-63] | > 7.30 |

| SMILES | pIC50 |
| --- | --- |
| Cn1c(=O)n(C2CCC(=O)NC2=O)c2cccc(CCCOC3CCN(C(=O)c4ccc(NC(=O)[C@@H]5NC6(CCCCC6)[C@@]6(C(=O)Nc7cc(Cl)ccc76)[C@H]5c5cccc(Cl)c5F)cc4)CC3)c21 (stereo partly drawn) [I-64] | > 7.30 |
| Cn1c(=O)n(C2CCC(=O)NC2=O)c2cccc(N3CCC4(CC3)CN(C(=O)c3ccc(NC(=O)[C@@H]5NC6(CCCCC6)[C@@]6(C(=O)Nc7cc(Cl)ccc76)[C@H]5c5cccc(Cl)c5F)cc3)C4)c21 (stereo partly drawn) [I-65] | > 7.30 |
| CN(CCCCCc1ccc2c(c1)n(C)c(=O)n2C1CCC(=O)NC1=O)C[C@H]1CC[C@H](NC(=O)[C@@H]2NC3(CCC(C)(C)CC3)[C@@]3(C(=O)Nc4cc(Cl)ccc43)[C@H]2c2cccc(Cl)c2F)CC1 (stereo partly drawn) [I-66] | > 7.30 |
| Cn1c(=O)n(C2CCC(=O)NC2=O)c2ccc(CCCCCNC(=O)[C@H]3CC[C@H](NC(=O)[C@@H]4NC5(CCCCC5)[C@@]5(C(=O)Nc6cc(Cl)ccc65)[C@H]4c4cccc(Cl)c4F)CC3)cc21 (stereo partly drawn) [I-67, (3′R,4'S,5′R)-6″-chloro-4′-(3-chloro-2-fluorophenyl)-N-((1r,4R)-4-((5-(1-(2,6-dioxopiperidin-3-yl)-3-methyl-2-oxo-2,3-dihydro-1H-benzo[d]imidazol-5-yl)pentyl)carbamoyl)cyclohexyl)-2″-oxodispiro[cyclohexane-1,2′-pyrrolidine-3′,3″-indoline]-5′-carboxamide] | > 7.30 |
| Cn1c(=O)n(C2CCC(=O)NC2=O)c2ccc(C#CC3CCN(C[C@H]4CC[C@H](NC(=O)[C@@H]5NC6(CCC(C)(C)CC6)[C@@]6(C(=O)Nc7cc(Cl)ccc76)[C@H]5c5cccc(Cl)c5F)CC4)CC3)cc21 (stereo partly drawn) [I-68] | > 7.30 |
| Cn1c(=O)n(C2CCC(=O)NC2=O)c2ccc(C#CC3CCN(C(=O)[C@H]4CC[C@H](NC(=O)[C@@H]5NC6(CCCCC6)[C@@]6(C(=O)Nc7cc(Cl)ccc76)[C@H]5c5cccc(Cl)c5F)CC4)CC3)cc21 (stereo partly drawn) [I-69] | > 7.30 |
| Cn1c(=O)n(C2CCC(=O)NC2=O)c2ccc(C#CC3CCN(C[C@H]4CC[C@H](NC(=O)[C@@H]5NC6(CCCCC6)[C@@]6(C(=O)Nc7cc(Cl)ccc76)[C@H]5c5cccc(Cl)c5F)CC4)CC3)cc21 (stereo partly drawn) [I-70] | > 7.30 |
| Cn1c(=O)n(C2CCC(=O)NC2=O)c2ccc(C#CC3CCN(C(=O)[C@H]4CC[C@H](NC(=O)[C@@H]5NC6(CCC(C)(C)CC6)[C@@]6(C(=O)Nc7cc(Cl)ccc76)[C@H]5c5cccc(Cl)c5F)CC4)CC3)cc21 (stereo partly drawn) [I-71] | > 7.30 |
| Cn1c(=O)n(C2CCC(=O)NC2=O)c2ccc(CCCCCNC(=O)[C@H]3CC[C@H](NC(=O)[C@@H]4NC5(CCC(C)(C)CC5)[C@@]5(C(=O)Nc6cc(Cl)ccc65)[C@H]4c4cccc(Cl)c4F)CC3)cc21 (stereo partly drawn) [I-72] | > 7.30 |
| Cn1c(=O)n(C2CCC(=O)NC2=O)c2ccc(CCCCCNC(=O)c3ccc(NC(=O)[C@@H]4NC5(CCC(C)(C)CC5)[C@@]5(C(=O)Nc6cc(Cl)ccc65)[C@H]4c4cccc(Cl)c4F)cc3)cc21 (stereo partly drawn) [I-74, (3′R,4'S,5′R)-6″-chloro-4′-(3-chloro-2-fluorophenyl)-N-(4-((5-(1-(2,6-dioxopiperidin-3-yl)-3-methyl-2-oxo-2,3-dihydro-1H-benzo[d]imidazol-5-yl)pentyl)carbamoyl)phenyl)-4,4-dimethyl-2″-oxodispiro[cyclohexane-1,2′-pyrrolidine-3′,3″-indoline]-5′-carboxamide] | > 7.30 |
| Cn1c(=O)n(C2CCC(=O)NC2=O)c2ccc(C#CC3CCN(C(=O)C45CCC(NC(=O)[C@@H]6NC7(CCCCC7)[C@@]7(C(=O)Nc8cc(Cl)ccc87)[C@H]6c6cccc(Cl)c6F)(CC4)CC5)CC3)cc21 (stereo partly drawn) [I-75] | > 7.30 |
| Cn1c(=O)n(C2CCC(=O)NC2=O)c2ccc(C#CC3CCN(C(=O)c4ccc(NC(=O)[C@@H]5NC6(CCC(C)(C)CC6)[C@@]6(C(=O)Nc7cc(Cl)ccc76)[C@H]5c5cccc(Cl)c5F)cc4)CC3)cc21 (stereo partly drawn) [I-76] | 6.30 to 7.00 |
| CN1[C@@H](C(=O)Nc2ccc(CN3CCC(CCc4ccc5c(c4)n(C)c(=O)n5C4CCC(=O)NC4=O)CC3)cc2)[C@H](c2cccc(Cl)c2F)[C@]2(C(=O)Nc3cc(Cl)ccc32)C12CCCCC2 (stereo partly drawn) [I-77] | > 7.30 |
| Cn1c(=O)n(C2CCC(=O)NC2=O)c2ccc(CCCCCNC(=O)c3cccc(NC(=O)[C@@H]4NC5(CCCCC5)[C@@]5(C(=O)Nc6cc(Cl)ccc65)[C@H]4c4cccc(Cl)c4F)c3)cc21 (stereo partly drawn) [I-78] | > 7.30 |
| Cn1c(=O)n(C2CCC(=O)NC2=O)c2ccc(C#CC3CCN(Cc4ccc(NC(=O)[C@@H]5NC6(CCCCC6)[C@@]6(C(=O)Nc7cc(Cl)ccc76)[C@H]5c5cccc(Cl)c5F)cc4)CC3)cc21 (stereo partly drawn) [I-79] | > 7.30 |
| CN1[C@@H](C(=O)Nc2ccc(C(=O)N3CCC(C#Cc4ccc5c(c4)n(C)c(=O)n5C4CCC(=O)NC4=O)CC3)cc2)[C@H](c2cccc(Cl)c2F)[C@]2(C(=O)Nc3cc(Cl)ccc32)C12CCCCC2 (stereo partly drawn) [I-80] | > 7.30 |
| CN1[C@@H](C(=O)Nc2ccc(C(=O)NCCCCCc3ccc4c(c3)n(C)c(=O)n4C3CCC(=O)NC3=O)cc2)[C@H](c2cccc(Cl)c2F)[C@]2(C(=O)Nc3cc(Cl)ccc32)C12CCC(C)(C)CC2 (stereo partly drawn) [I-81] | > 7.30 |
| Cn1c(=O)n(C2CCC(=O)NC2=O)c2ccc(C#CCCCNC(=O)[C@H]3CC[C@H](NC(=O)[C@@H]4NC5(CCCCC5)[C@@]5(C(=O)Nc6cc(Cl)ccc65)[C@H]4c4cccc(Cl)c4F)CC3)cc21 (stereo partly drawn) [I-82] | > 7.30 |
